The numbers were not newly measured in US10004754B2, “ANP fragment adjuvant therapy to standard of care (SOC) diuretic treatment” (MADELEINE PHARMACEUTICALS PTY LTD, priority 2014, dated 2018), which cites them from elsewhere.

The subject of the data set is ADCHF patients. As to conditions: cited from earlier work.

As for “nesiritide: A recombinant form of human BNP, approved by the FDA for the treatment of ADCHF”, for the setting “Gottlieb, 2013”, the “diuresis in ADCHF patients” value was “does not increase diuresis”. The “patient mortality or re-hospitalisation rate” value (O'Conner et al., 2011) is listed as “not associated with a change”.
